Measured values published in patent EP1336409B1 (priority 1995, dated 1997).

Tested on: mechanical allodynia
Conditions: rat, in vivo

Substance | Effective intrathecal doses [µg] | apparent order of potency for suppression of allodynia | block of mechanical allodynia
Met(0)^12-SNX-111 [SNX-279] | 0.1 to 0.3 | SNX-111 =SNX-273 > SNX-279 | block mechanical allodynia significantly
[ala^12-SNX-111 [SNX-273] | 0.1 to 0.3 | SNX-111 =SNX-273 > SNX-279 | block mechanical allodynia significantly
